Measurements published in PubChem BioAssay (NCI).
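Five compound concentrations were applied to cells in 96-well plates for 48 hours; endpoints were derived by simple linear interpolation of the resulting dose-response curve. At the TGI there is no net growth.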

What was measured:
Test in all cases: NCI anticancer screen, dose series, 48 h
TK-10 renal = tested on: TK-10 renal
OVCAR-3 ovarian = tested on: OVCAR-3 ovarian
DMS 273 small cell lung = tested on: DMS 273 small cell lung
LXFL 529 NSCLC = tested on: LXFL 529 NSCLC
SNB-78 CNS = tested on: SNB-78 CNS
DLD-1 colon = tested on: DLD-1 colon
M19-MEL melanoma = tested on: M19-MEL melanoma
XF 498 CNS = tested on: XF 498 CNS
KM20L2 colon = tested on: KM20L2 colon
DMS 114 small cell lung = tested on: DMS 114 small cell lung
HOP-18 NSCLC = tested on: HOP-18 NSCLC

With Cc1nc(N/N=C/c2ccccc2Cl)[nH]c(=O)c1CCO the TGI (TK-10 renal) was over 100 µM and the TGI (OVCAR-3 ovarian) was 46.5 µM.
Work on Oc1ccc(N=C2CCC(=C(c3ccccc3)c3ccc(Nc4ccc(O)cc4)cc3)CC2)cc1 yielded a TGI (TK-10 renal) of over 100 µM.
CCC[C@H](NS(=O)c1ccc(C)cc1)C(C(=O)OCC)=C(c1ccccc1)c1ccccc1 (stereo not given in full) gave a TGI (TK-10 renal) of 97 µM.
NC(=S)N/N=C1\NC(=O)/C(=C/c2ccc3c(c2)OCO3)S1 gave a TGI (TK-10 renal) of over 100 µM and a TGI (OVCAR-3 ovarian) of 45.7 µM.
Molecule CC(C)=NNC=N/C(C#N)=C(\N)C#N has a TGI (TK-10 renal) of over 100 µM and a TGI (OVCAR-3 ovarian) of over 100 µM.
Molecule Cc1nc2c(=O)n(-c3ccccc3)c3ccccc3c2o1 has a TGI (TK-10 renal) of over 100 µM and a TGI (OVCAR-3 ovarian) of over 100 µM.
In the case of CC(C)(C)Nc1noc(=O)n1C(C)(C)C, the TGI (TK-10 renal) is reported as over 100 µM and the TGI (OVCAR-3 ovarian) is reported as over 100 µM.
CC(SC(=S)N1CCOCC1)C(=O)Nc1nnc(-c2ccccc2)o1 (stereo not given) showed a TGI (TK-10 renal) of over 100 µM and a TGI (OVCAR-3 ovarian) of over 100 µM.
For COc1ccc(C(CC(=O)C(C)(C)CN2CCCCC2)SCCS(=O)(=O)O)cc1 (stereo not given), the TGI (TK-10 renal) was over 100 µM and the TGI (OVCAR-3 ovarian) was 38.3 µM.
CC(NC(=O)c1ccccc1)NC(=O)C(C)C(=O)Nc1ccccc1 (stereo not given) was tested, and the TGI (TK-10 renal) was over 100 µM.
Work on O=c1oc2ccccc2c(O)c1/C=N/C(=S)NCCc1ccccc1 yielded a TGI (TK-10 renal) of over 100 µM and a TGI (OVCAR-3 ovarian) of over 100 µM.
In the case of COC(=O)c1c(O)ccc2c1c1c(n2Cc2ccc(Cl)cc2Cl)C(=O)c2ccccc2C1=O, the TGI (TK-10 renal) is reported as 29 µM and the TGI (OVCAR-3 ovarian) is reported as 27.2 µM.
With COC1=CCC=C(C[C@@H]2NCCc3cc(OC)c(OC)cc32)C1 the TGI (DMS 273 small cell lung) was over 100 µM, the TGI (LXFL 529 NSCLC) was over 100 µM and the TGI (SNB-78 CNS) was over 100 µM. The TGI (TK-10 renal) was over 100 µM, the TGI (DLD-1 colon) was over 100 µM and the TGI (OVCAR-3 ovarian) was over 100 µM. The TGI (M19-MEL melanoma) was over 100 µM, the TGI (XF 498 CNS) was over 100 µM and the TGI (KM20L2 colon) was over 100 µM.
COc1ccc(/C(O)=C/c2nc3cccnc3nc2/C=C(\O)c2ccc(OC)cc2)cc1 gave a TGI (TK-10 renal) of 37.7 µM and a TGI (OVCAR-3 ovarian) of 38.8 µM.
Molecule CCc1c(Cc2[nH]c(Cc3[nH]c(C=O)c(C)c3CC)c(CC)c2CC)[nH]c(C=O)c1C has a TGI (DMS 273 small cell lung) of over 100 µM, a TGI (DMS 114 small cell lung) of over 100 µM and a TGI (LXFL 529 NSCLC) of over 100 µM. The TGI (SNB-78 CNS) was over 100 µM, the TGI (TK-10 renal) was over 100 µM and the TGI (DLD-1 colon) was over 100 µM. For the same molecule, the TGI (OVCAR-3 ovarian) was over 100 µM, the TGI (HOP-18 NSCLC) was over 100 µM and the TGI (M19-MEL melanoma) was over 100 µM. For the same molecule, the TGI (XF 498 CNS) was over 100 µM and the TGI (KM20L2 colon) was over 100 µM.
In the case of CCN(CC)CCNC(=O)c1cc2cc(NC(=O)c3cc4cc(NC(=O)c5cc6cc(N)ccc6[nH]5)ccc4[nH]3)ccc2[nH]1, the TGI (TK-10 renal) is reported as over 100 µM and the TGI (OVCAR-3 ovarian) is reported as over 100 µM.
CN(C)P(=O)(Oc1ccc(CC(NC(=O)OCc2ccccc2)C(=O)OCc2ccccc2)cc1)N(C)C (stereo not given) gave a TGI (TK-10 renal) of 47 µM and a TGI (OVCAR-3 ovarian) of 11.4 µM.
With CC1=C/C(=N\O)C(C(O)(C(F)(F)F)C(F)(F)F)C(C)(C)C1 (stereo not given) the TGI (TK-10 renal) was over 10 µM and the TGI (OVCAR-3 ovarian) was over 10 µM.
Work on O=C(N=Nc1cccc(Cl)c1)NNc1cccc(Cl)c1 yielded a TGI (TK-10 renal) of 66.6 µM and a TGI (OVCAR-3 ovarian) of 29.9 µM.
COc1cc(OC)c2nc(C)c3c(c2c1)NCC3 showed a TGI (TK-10 renal) of 35.7 µM and a TGI (OVCAR-3 ovarian) of 33.4 µM.
Work on CCOC(=O)[C@@]12C3C=CC(CC3)[C@]1(C(=O)c1ccccc1)C(=O)C(=O)N2c1ccccc1 (stereo not given in full) yielded a TGI (TK-10 renal) of over 100 µM and a TGI (OVCAR-3 ovarian) of over 100 µM.
Work on Cc1cc(S(=O)(=O)Nc2cc(N)[nH]n2)c(SCc2nc(N)nc(N(C)C)n2)cc1Cl yielded a TGI (TK-10 renal) of over 10 µM and a TGI (OVCAR-3 ovarian) of over 10 µM.
Work on CC(=O)O[C@H]1/C(=C/c2ccncc2)C[C@H]2[C@@H]3CC=C4C[C@@H](N5CCCC5)CC[C@]4(C)[C@H]3CC[C@]12C yielded a TGI (TK-10 renal) of 29.5 µM and a TGI (OVCAR-3 ovarian) of 45.9 µM.
With O=c1[nH]nc(Cc2ccccc2)n1/N=C\c1ccccc1 the TGI (TK-10 renal) was over 100 µM and the TGI (OVCAR-3 ovarian) was over 100 µM.
COC(=O)[C@@H]1CN(C(C)=O)C(=O)N1C(=O)OCc1ccccc1 gave a TGI (TK-10 renal) of over 100 µM and a TGI (OVCAR-3 ovarian) of over 100 µM.
With C[C@]12CC/C(=N\O)C=C1CC[C@@H]1[C@@H]2CC[C@]2(C)C(=N/O)/C(=C/c3ccc([N+](=O)[O-])cc3)C[C@@H]12 the TGI (TK-10 renal) was 91 µM and the TGI (OVCAR-3 ovarian) was 8.1 µM.
Work on CN(C)CCN=C1Nc2ccccc2C(=S)N2CSCC12 (stereo not given) yielded a TGI (TK-10 renal) of over 100 µM and a TGI (OVCAR-3 ovarian) of over 100 µM.
Work on NCCN1C(=O)CN=C(c2ccc(Cl)cc2)c2cc(Cl)ccc21 yielded a TGI (TK-10 renal) of 30.5 µM and a TGI (OVCAR-3 ovarian) of 29.3 µM.
Molecule CC(=O)Nc1ccc(-c2nc3ccccc3s2)cc1I has a TGI (OVCAR-3 ovarian) of 32.4 µM.
With CCc1n[nH]c(=O)n1/N=C/c1ccc(C)cc1 the TGI (TK-10 renal) was over 100 µM and the TGI (OVCAR-3 ovarian) was over 100 µM.
Molecule CC1Oc2c(c(=O)oc3ccccc23)[C@@]1(C)CC1C[C@H](C)C(=O)O1 (stereo not given in full) has a TGI (TK-10 renal) of over 100 µM and a TGI (OVCAR-3 ovarian) of 45.3 µM.
O=C(O)c1ccc(NC(NC(=O)C(C(F)(F)F)C(F)(F)F)(C(F)(F)F)C(F)(F)F)cc1 gave a TGI (TK-10 renal) of over 100 µM.
Work on COc1ccc(OCc2ccc3nc(-c4ccccc4)c(Cl)nc3c2)cc1 yielded a TGI (TK-10 renal) of 55.3 µM and a TGI (OVCAR-3 ovarian) of over 100 µM.
Molecule C=C(C)[C@H]1C=C[C@@H](OC(=O)c2cccnc2)[C@@]23CO[C@@](C)([C@H](OC(=O)c4cccnc4)[C@@]4(OC(C)=O)C[C@H](C)[C@H](OCCC)[C@@H]4[C@H]2OC(C)=O)[C@H]13 has a TGI (TK-10 renal) of over 15 µM and a TGI (OVCAR-3 ovarian) of over 15 µM.
In the case of CC(C)(C)OC(=O)NCCc1cccc2c1oc1c(CCC(=O)O)cccc12, the TGI (DMS 273 small cell lung) is reported as over 100 µM, the TGI (DMS 114 small cell lung) is reported as over 100 µM and the TGI (LXFL 529 NSCLC) is reported as over 100 µM. For the same molecule, the TGI (SNB-78 CNS) was over 100 µM, the TGI (TK-10 renal) was over 100 µM and the TGI (DLD-1 colon) was over 100 µM. The TGI (OVCAR-3 ovarian) was over 100 µM, the TGI (HOP-18 NSCLC) was over 100 µM and the TGI (M19-MEL melanoma) was over 100 µM. The TGI (XF 498 CNS) was over 100 µM and the TGI (KM20L2 colon) was over 100 µM.
